According to patent EP2243494A1, “Pharmaceutical composition, comprising a steroid-dehydrogenase-reductase inhibitor, and a mineralocorticoid receptor antagonist” (OntoChem GmbH, priority 2009, dated 2010):

What was measured:
monocytes = test: Monocyte/macrophage differentiation and functional changes (RT-PCR or microarray analysis); type: cell-based, Rodent and human; conditions: for cell proliferation and maturation of monocytes: 10^-7 M cortisol, 10^-9 M aldosteron
Description: Rodent and human monocytes were studied during their differentiation process towards macrophages in the presence or absence of different, physiologically relevant levels of cortisol or corticosterone, as well as aldosterone, respectively.
Glucocorticoid receptor (GR) and mineralocorticoid receptor occupancy was modulated with either eplerenone or ZK91587 or canrenoate (as MR-antagonists) or RU486 (GR-antagonist). […] (dehydrocorticosterone in rodent cells) was added as a substrate for 11-beta-HSD1. Metyrapone was used to block 11-beta-HSD1 reductase activity. Inhibitors were added with 10^-7 M cortisol, 10^-9 M aldosteron concentration, HSD inhibitors were added in 10^-6 M concentration.
Monocytes were first stimulated with either lipopolysaccharide (LPS) or Tumor-necrosis-factor-alpha (TNF-apha), interferone-gamma (IFN-gamma), interleukin-13 (IL-13) or interleukin-4 (IL-4) before differentiation into macrophages in the presence of above different agonist/antagonist combinations. In order to evaluate the linkage between inflammation and metabolic disease, mature macrophages were also stimulated with fatty acids via the Toll-like-receptor 4.

[1] = test system: Vascular smooth muscle cells; test: GR or MR blockade and 11-beta-HSD-2 inhibition in vascular cells; type: cell-based; conditions: physiologically relevant levels of aldosterone
Description: Vascular smooth muscle cells were incubated with varying combinations of a MR or GR-antagonist and physiologically relevant levels of cortisol or aldosterone; importantly, adosterone and cortisol were also used in combination to mimic specific interactions between the ligand-receptor and co-factor recruitment as observed in vitro and in vivo.

[2] = molecular target: T1, mineralocorticoid receptor (Homo sapiens, UniProt P08235); conditions: relative to aldosterone; cited from earlier work
T1 sequence (P08235 1-984): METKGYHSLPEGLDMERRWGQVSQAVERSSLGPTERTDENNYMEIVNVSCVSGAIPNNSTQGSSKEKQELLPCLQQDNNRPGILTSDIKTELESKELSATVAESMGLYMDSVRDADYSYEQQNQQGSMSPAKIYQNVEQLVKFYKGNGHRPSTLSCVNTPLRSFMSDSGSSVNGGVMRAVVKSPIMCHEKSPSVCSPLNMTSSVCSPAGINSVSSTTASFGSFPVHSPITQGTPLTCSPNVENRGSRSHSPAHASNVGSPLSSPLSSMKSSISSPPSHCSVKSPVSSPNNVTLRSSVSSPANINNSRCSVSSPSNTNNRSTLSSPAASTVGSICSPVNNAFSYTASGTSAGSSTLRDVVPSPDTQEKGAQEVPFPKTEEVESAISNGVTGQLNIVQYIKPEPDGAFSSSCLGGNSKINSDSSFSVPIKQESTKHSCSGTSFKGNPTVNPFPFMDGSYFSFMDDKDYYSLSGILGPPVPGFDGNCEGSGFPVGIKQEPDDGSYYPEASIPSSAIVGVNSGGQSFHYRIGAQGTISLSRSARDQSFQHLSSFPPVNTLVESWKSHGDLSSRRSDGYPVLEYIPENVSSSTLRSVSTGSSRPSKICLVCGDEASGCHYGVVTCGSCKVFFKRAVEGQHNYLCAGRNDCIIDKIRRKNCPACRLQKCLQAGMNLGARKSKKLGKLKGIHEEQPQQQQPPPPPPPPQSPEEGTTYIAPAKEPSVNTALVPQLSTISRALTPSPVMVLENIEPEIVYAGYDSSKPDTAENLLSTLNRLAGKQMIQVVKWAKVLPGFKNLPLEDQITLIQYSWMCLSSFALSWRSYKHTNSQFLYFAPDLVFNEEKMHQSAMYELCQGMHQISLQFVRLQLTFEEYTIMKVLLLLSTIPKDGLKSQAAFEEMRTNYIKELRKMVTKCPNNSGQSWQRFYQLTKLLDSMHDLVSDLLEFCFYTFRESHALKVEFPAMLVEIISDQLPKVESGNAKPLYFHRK

[3] = heart failure patients, normal or low aldosterone, added to ACE inhibitor, loop diuretic and digoxin; cited from earlier work

Row | SMILES | cell proliferation and maturation of monocytes (monocytes) | vascular endothelial growth factor (VEGF) and ICAM-1 induction [1] | decrease of post-myocardial infarction morbidity and mortality rate [3] | further results
1 | C[C@]12CCC(=O)C=C1CC[C@@H]1[C@@H]2[C@@H](O)C[C@]2(C=O)[C@@H](C(=O)CO)CC[C@@H]12 [aldosterone] | induced cell proliferation and maturation of monocytes | induced vascular endothelial growth factor (VEGF) as well as ICAM-1 |  | macrophage phenotype (NfkappaB, RANK-ligand, interleukin-6, ROS, plasminogen activator inhibitor-1) (monocytes; induction with aldosterone): more proinflammatory macrophage phenotype
2 | C[C@]12CCC(=O)C=C1CC[C@@H]1[C@@H]2[C@@H](O)C[C@@]2(C)[C@H]1CC[C@]2(O)C(=O)CO [cortisol] | induced cell proliferation and maturation of monocytes |  |  | affinity to the mineralocorticoid receptor, higher than aldosterone [2]: 10-30 fold
3 | C[C@]12CCC(=O)C=C1CC[C@@H]1[C@@H]2C(=O)C[C@@]2(C)[C@H]1CC[C@]2(O)C(=O)CO [cortisone] | induced cell proliferation and maturation of monocytes |  |  | 
4 | COC(=O)[C@@H]1CC2=CC(=O)CC[C@]2(C)[C@@]23O[C@@H]2C[C@@]2(C)[C@@H](CC[C@@]24CCC(=O)O4)[C@H]13 [eplerenone] |  | reversed this effect | ~15% | 
5 | CC(C)(C(=O)c1cccnc1)c1cccnc1 [metyrapone] |  |  |  | effect on macrophage differentiation and function (monocytes; HSD inhibitors added in 10^-6 M concentration): the effects of aldosterone at the high affinitity MR were enhanced or were able to override glucocorticoid mediated effects
6 | CC(=O)S[C@@H]1CC2=CC(=O)CC[C@]2(C)[C@H]2CC[C@@]3(C)[C@@H](CC[C@@]34CCC(=O)O4)[C@H]12 [spironolactone] |  |  | about 30% | 
